The subject of data set [1] is CYP3A4. As to conditions: human recombinant CYP, background data in introduction, no reference given, cited from earlier work.
A short description of data set [2]: Estimation of oral bioavailability fractions (fa, fg, fh). The class given is in vivo, human. An excerpt: Contribution to clearance from nonhepatic routes was assumed to be minimal. fg was estimated assuming Fg=F/Fa/Fh .
In data set [3] the test system is CYP3A4. Particulars: 0.1 to 30 μM incubated with human hepatocytes; background data in introduction, no reference given; cited from earlier work.
The nature of data set [4]: Part 1 absolute bioavailability: plasma PK after oral 600 mg ziritaxestat and 15-minute IV infusion of 100 μg 14C-ziritaxestat microtracer. The class given is in vivo, human. As to conditions: for F AUCt (absolute bioavailability) / F AUC∞ (absolute bioavailability): oral 600 mg vs IV 100 μg 14C-ziritaxestat; for F AUCt (absolute bioavailability): dose-normalized AUCt; for F AUC∞ (absolute bioavailability): dose-normalized AUC∞. The source says: Part 1 of the study was designed to assess the absolute bioavailability of ziritaxestat. An IV microtracer, a well‐established technique, was used.[21], [22] This design involved a 15‐minute infusion of a subtherapeutic 100‐μg IV ziritaxestat dose labeled with a microtracer (≤1000 nCi) of ^14C radioactivity, dosed at an anticipated time to reach maximum plasma concentration (tmax) of a preceding unlabeled therapeutic (600‐mg) oral dose (administered as three 200‐mg film‐coated tablets). The low‐dose IV formulation means that nonclinical local tolerability and IV toxicology studies can generally be avoided,[21], [22] which can be preferable when developing a single, fit‐for‐purpose IV formulation. Administering the IV microdose at tmax of the unlabeled therapeutic (600‐mg) oral dose of ziritaxestat ensured that the PK of the microdose remained representative of the therapeutic dose.
Given the low (microgram) levels of ziritaxestat expected in plasma, liquid chromatography–accelerated mass spectrometry (LC‐AMS) was used to quantify levels of ^14C‐ziritaxestat, whereas accelerated mass spectrometry (AMS) was used to quantify total radioactivity following the IV dose, achieving a lower limit of quantification (LLOQ) of 0.110 ng eq/mL and 0.0069 ng eq/mL, respectively. Concentrations of unlabeled parent in plasma were measured using liquid chromatography with tandem mass spectrometry (LC‐MS/MS), with an LLOQ of 1.00 ng/mL.
Subjects were admitted to the clinic on day –1 (the evening before dosing) and remained onsite until 72 hours after dosing. On the morning of day 1, 30 minutes after the start of a standard breakfast, subjects received a single oral dose of 600‐mg ziritaxestat, followed 3.25 hours later by a 15‐minute IV infusion of 100 μg of ^14C‐ziritaxestat. Plasma samples for ziritaxestat concentrations were collected before dosing and at 0.25, 0.5, 1, 1.5, 2, 3, 3.25, 4, 5, 6, 8, 10, 12, 24, 48, and 72 hours after the oral dose. In addition, plasma samples for ^14C‐ziritaxestat, total radioactivity, and metabolite profiling were collected at 3.25, 3.33, 3.5, 3.75, 4, 4.25, 4.75, 5.25, 6, 7, 8, 10, 12, 24, 48, and 72 hours after the oral dose.
(§1) Concentrations of ziritaxestat in human lithium heparin plasma samples were determined for both study parts by using an LC‐MS/MS method validated according to the requirements of the US Food and Drug Administration's Guidance for Industry and the European Medicines Agency's guidance on bioanalytical methods. The method involved isolating ziritaxestat and ziritaxestat‐d8 (internal standard) from 20 μL of human lithium heparin plasma by solid‐phase extraction performed on a CUBCX1 100‐mg 1‐mL cartridge (Screening Devices, Amersfoort, Netherlands). The extract sample was then evaporated to dryness under a stream of nitrogen at +50°C. The residue was reconstituted with 0.3 mL of a mixture of 25% acetonitrile in purified water containing 0.01% of ammonium hydroxide. Ten microliters of the clear supernatant were injected into the high‐performance liquid chromatography system (Shimadzu, Kyoto, Japan), operating in isocratic elution mode. Chromatographic separation was performed on an XBridge C18 column (100 × 4.6 mm, 3.5 μm; Waters Corp., Milford, Massachusetts). The aqueous mobile phase consisted of a mixture of 46.75% acetonitrile in purified water containing 0.02% of ammonium hydroxide. An API 4000 LC‐MS/MS system (SCIEX, Toronto, Canada) equipped with a TurboIonSpray probe operating in multiple‐reaction monitoring mode in positive mode was used for quantification. The precursor‐to‐product ion pairs at the mass‐to‐charge ratio were 589 to 256 and 597 to 264 for ziritaxestat and its internal standard, respectively.
Total radioactivity plasma concentrations for part 1 were determined using AMS analysis on a 1‐MV multielement accelerated mass spectrometer, model 4110 Bo (High Voltage Engineering Europa, Amersfoort, the Netherlands). […]

The subject of a further data set is CYP2C8. Particulars: background data in introduction, no reference given, cited from earlier work.
The nature of data set [5]: Metabolite profiling and identification in plasma, urine and feces. The class given is in vivo, human. Particulars: for Mean Feces Region of Interest: components of one region share its value. How it is done:
(§2) Whole blood and plasma samples for total radioactivity and plasma sample concentrations of ziritaxestat were collected before dosing and at 0, 0.25, 0.5, 1, 1.5, 2, 3, 4, 6, 8, 10, 24, 48, 72, 96, 120, 144, 168, 192, and 216 hours after dosing. Plasma samples for metabolite identification and quantification were collected before dosing and at 1, 3, 6, 24, 48, 72, 96, and 144 hours after dosing. Urine and fecal samples for total radioactivity, metabolite identification, and quantification were collected before dosing through to 216 hours after dosing. Structural identification was attempted on any radioactive component that represented ≥10% of the circulating radioactivity in plasma or that accounted for >10% of the dose in ≥1 fecal and urine samples.

Another data set deals with CYP3A4/5. As to conditions: human liver microsomes and probe substrates; weak inhibition; background data in introduction, no reference given; read-out: half maximal inhibitory concentration; cited from earlier work.
A short description of data set [6]: Safety assessments (AEs, laboratory tests, vital signs, ECG). It is filed as in vivo, human. Particulars: parts 1 and 2. How it is done:
Safety assessments included adverse events (AEs), clinical laboratory tests (clinical chemistry, hematology, urinalysis), vital signs, 12‐lead electrocardiograms (ECGs), and physical examinations. AEs were recorded from the first dose until study discharge, and at the follow‐up call. Any adverse experiences recorded between the time of informed consent and the first dose were recorded with the medical history. AEs and medications were coded using the Medical Dictionary for Regulatory Activities version 21.1.

A further data set relates to CYP1A2. As to conditions: 0.1 to 30 μM incubated with human hepatocytes; background data in introduction, no reference given; cited from earlier work.
The nature of data set [7]: Part 2: plasma and whole blood PK after a single oral 600-mg dose of 14C-ziritaxestat. The class given is in vivo, human. As to conditions: ziritaxestat in plasma, single oral 600 mg 14C-ziritaxestat.
Description: Part 2 of the study assessed the mass balance, routes of elimination, and metabolite profile of ziritaxestat following a single, oral 600‐mg dose (administered as two 300‐mg active pharmaceutical ingredients‐in‐capsule) of ^14C‐ziritaxestat.
Subjects were admitted on the evening before dosing (day –1 of part 2), allowing a minimum 7‐day washout in oral drug administration between parts 1 and 2. On the morning of day 1, subjects received a single oral dose of ^14C‐ziritaxestat, equivalent to 600 mg of ziritaxestat. […] Subjects stayed in the clinical study center no longer than day 10 (216 hours after dosing).
as §2
Total radioactivity was measured via liquid scintillation counting, achieving an LLOQ of 306 ng eq/mL (plasma), 216 ng eq/mL (whole blood), 17 ng eq/g (urine), and 161 ng eq/g (feces). Concentrations of parent in plasma were measured using LC‐MS/MS, with an LLOQ of 1.00 ng/mL.
as §1
PK analysis was performed using standard noncompartmental methods (Phoenix WinNonlin version 9.4; Pharsight, Certara, Princeton, New Jersey). […] In part 2, the following mass balance parameters were determined: cumulative amount of total radioactivity excreted in urine up to t, cumulative amount of total radioactivity excreted in feces up to t, amount of total radioactivity excreted in urine as a percentage of administered radioactivity, and amount of total radioactivity excreted in feces as a percentage of administered radioactivity. AUC was calculated by the linear up‐logarithmic down‐trapezoid rule, CL was calculated as dose/AUC, Vd(area) was calculated as CL/λz, and F was calculated as dose‐normalized ziritaxestat oral AUC/^14C‐ziritaxestat IV AUC.

Where [8] appears, read: human, ziritaxestat in plasma, oral 600 mg, n = 6, mean (SD).
The mark [9] stands for this setting: mean (SD), listed as ziritaxestat.
The mark [10] stands for this setting: feces, single oral 600 mg 14C-ziritaxestat.

Entries after “also recorded” stand apart in the source; their conditions may differ.

Turning to `CCc1nc2c(C)cc(N3CCN(CC(=O)N4CC(O)C4)CC3)cn2c1N(C)c1nc(-c2ccc(F)cc2)c(C#N)s1` [Ziritaxestat], the “Enzyme primarily responsible for metabolism” value in the data set on CYP3A4 [1] is reported as “primarily metabolized by CYP3A4”. In addition, the “Contribution to metabolism from other phase 1 enzymes (maximum)” value with CYP3A4 [1] (enzymes other than CYP3A4) is given as no more than 2.1%. The “fg (fraction of drug surviving gut metabolism)” value in data set [2] (Fg = F/Fa/Fh) is 69%. Further, the “fh (fraction of drug surviving hepatic elimination)” value in data set [2] (Fh = 1 - Eh, Eh = ClIV/Qh, Qh 1450 mL/min) is 91%. For the same compound, in data set [2] (human, in vivo), the “Hepatic extraction ratio (first-pass loss)” value is 9% and the “frem (fraction of drug remaining to be eliminated)” value is given as 14%. Further, the “CYP3A4 messenger RNA expression (induction potential)” value in the data set on CYP3A4 [3] was “Increases in messenger RNA expression”. For the same compound, in data set [4] (setting [8]), the AUC(0-inf) was found to be 40000 ng·h/mL, the AUC(0-t) was found to be 40000 ng·h/mL, the Cmax was found to be 8400 ng/mL and the half-life is 420 min. Moreover, the time of peak concentration (Tmax) in data set [4] (human, ziritaxestat in plasma, oral 600 mg, n = 6, median (range)) was 3.25 h. In [4] (mean (SD)), the “F AUCt (absolute bioavailability)” value is 54.4 (5.2) % and the “F AUC∞ (absolute bioavailability)” value is given as 51.1 (4.8) %. For the same compound, in [4] (setting [9]), the “F AUCt (absolute bioavailability)” value came to 54% and the “F AUC∞ (absolute bioavailability)” value came out at 51%. In addition, in data set [4] (ziritaxestat in plasma, oral 600 mg, n = 6, mean (SD)), the CL/F was 16.3 (4.6) L/h. In addition, the “half maximal inhibitory concentration fold shift” value in the data set with CYP2C8 (CYP2C8-mediated metabolism, preincubation with ziritaxestat in the absence and presence of NADP, time-dependent inhibition) is given as 2.49. The IC50 with CYP2C8 (human liver microsomes and probe substrates, weak inhibition, read-out: half maximal inhibitory concentration) is 2100 nM. In addition, the “Parent as share of total radioactivity (drug-related material) recovered in feces” value in data set [5] (feces, oral 600 mg 14C-ziritaxestat) is 17.6%. Besides, the “Mean Feces Region of Interest” value in [5] (setting [10]) came to 17.6%. Further, in data set [5] (plasma, metabolite profile / mass spectrometry analysis, oral 600 mg 14C-ziritaxestat), the “Share of circulating radioactivity in plasma” value amounted to 76%. The “Mean Plasma Region of Interest” value in [5] (plasma, single oral 600 mg 14C-ziritaxestat) is reported as 76.2. The IC50 in the data set with CYP3A4/5 was 3.7 µM. In [6], the “Effects on laboratory, vital signs, or ECG parameters” value is “no clinically meaningful effects”; the “Intensity of TEAEs” value is on record as “mild”; the “Relation of TEAEs to treatment as assessed by the investigator” value is “not considered to be related to the study drug; also recorded: not treatment related”. Also, the “Serious AEs or AEs leading to discontinuation or interruption of dosing” value in data set [6] (healthy male subjects) is “no serious AEs or AEs leading to discontinuation or interruption of dosing”. In data set [6] (reported in 5 subjects), the “Number of treatment-emergent AEs (TEAEs)” value was 7. Further, in the data set on CYP1A2, the “CYP1A2 messenger RNA expression (induction potential)” value is listed as “Increases in messenger RNA expression”. In [7] (human, n = 5, mean (SD)), this compound showed an AUC(0-inf) of 50500 ng·h/mL and a half-life of 636 min. In addition, in [7] (human, n = 6, mean (SD)), the AUC(0-t) amounted to 49100 ng·h/mL and the Cmax came to 10700 ng/mL. Besides, the AUC in data set [7] (human, n = 6, mean (SD), read-out: AUC24) was 47900 ng·h/mL. Further, the time of peak concentration (Tmax) in data set [7] (human, n = 6, median (range)) turned out to be 1.75 h. Besides, the CL/F in [7] (n = 5, mean (SD)) is 13.2 (4.6) [n = 5] ^c L/h.
Take `CCc1nc2c(C)cc(N3CCN(CC(=O)NCC(=O)O)CC3)cn2c1N(C)c1nc(-c2ccc(F)cc2)c(C#N)s1` [M590]: the “Mean Feces Region of Interest” value in [5] (setting [10]) was found to be 25.3%.
On the same count and under the same terms, the figure for `CCc1nc2c(C)cc(N3CCN(CC(=O)O)CC3)cn2c1N(C)c1nc(-c2ccc(F)cc2)c(C#N)s1` [M533] is 25.3%.

Source of the values: publication PMC9292235, “Pharmacokinetics and Metabolism of Ziritaxestat (GLPG1690) in Healthy Male Volunteers Following Intravenous and Oral Administration” (Clinical Pharmacology in Drug Development, 2021).
